Patent US20080260876A1, “Garlic Extract Compositions, Uses And Preparations Thereof” (priority 2005, published 2008)

How the values were obtained:
Oidium neolycopersici = assay: Semi-commercial greenhouse trial, tomato powdery mildew; format: in vivo
Description: Surface-sterilized tomato seeds (cv. Trust) were sown in rock wool cubes and fertilized daily with a standard nutrient solution. Seedlings were grown for 4 wk on a greenhouse bench at 21-24° C. with a 16 h photoperiod and transplanted (at the early flower stage) into rook wool in 13.5 L plastic bags perforated on the upper face in order to insert two rock wool cubes per bag. Plants at the 12-15 leaf stage were inoculated by rubbing a piece of tomato leaf heavily infected by Oidium neolycopersici onto leaf 7. At the onset of the first powdery mildew colonies (after 7-10 days), plants were sprayed with each formulation or with sulphur (the currently applied fungicide in tomato greenhouses) while controls were sprayed with water. The treatments were arranged in a randomized complete block design with 6 plants per treatment and three replications. All treatments with the garlic compositions were repeated once a week.
The treatments included: 1) Dehydrated garlic extracts-chitosan lactate (composition 1); 2) Dehydrated garlic extracts alone (composition 2); 3) chitosan lactate alone (composition 3); 4) sulphur; 5) water; and 6) water+vegetable oil (composition 4).
Disease severity was assessed three and six days after each treatment and evaluated as percentage of leaf area covered by powdery mildew. The assessments were made on a “low” leaf level (about leaf 3), a “middle” leaf level (leaves 6 and 9) and a “high” leaf level (about leaf 12) on three leaves for each level. For each treatment, […] yield was evaluated on 3 plants per replication. Data were analyzed by analysis of variance using the SAS procedure (SAS Inst., Inc., Cary, N.C.). The LSMEANS option was used to generate the probability of difference between all the variables in the study. Single degrees of freedom orthogonal contrasts were used to compare effects of the composition vs. chitosan lactate alone, the composition vs. water or water and oil, and the composition vs. sulphur. It is of note that powdery mildew on tomato is much less aggressive than it is on cucumber.

[1] = tested on: Podosphaera xanthii (syn. Sphaerotheca fuliginea); assay: Foliar spray on powdery mildew-infected cucumber plants; details: for Percentage of reduction of cucumber powdery mildew: Table 5, 1/500 (w/v) in water
Description: Compositions 1 to 4 (Table 1) were applied by foliar spray 7 to 10 days after the inoculation of cucumber plants with powdery mildew spores (infected with 3-4×10^4 spores/mL of Podosphaera xanthii (syn. Sphaerotheca fuliginea)).
Each composition was sprayed once on cucumber leaves and disease assessment was performed after 3, 6, 8 and 12 days. […] For each composition, the assay was repeated three times and the results illustrated in Table 2 represent the average of these three assays.
As previously indicated, some garlic-based compositions are described in U.S. Pat. No. 6,231,865. Particular attention is paid to Samples 1 to 4 disclosed in column 2 of this document.

[2] = 3 plants of tomato, cv. Trust, 14 weeks after harvest

SMILES | Average fruit weight, class 1 (Oidium neolycopersici; [2]) [g] | Total fruit yield, class 1 (Oidium neolycopersici; [2]) [Kg/m^2] | Total number of fruits, class 1 (Oidium neolycopersici; [2]) [tomatos/m^2] | Disease incidence after 14 weeks (% of infection) (Oidium neolycopersici; percentage of leaf area covered by powdery mildew, tomato cv. Trust) | Reduction of the incidence of powdery mildew in tomato (disease control) (Oidium neolycopersici; tomato greenhouse trial) [%] | Percentage of reduction of cucumber powdery mildew ([1]; 3 days) [%] | Percentage of reduction of cucumber powdery mildew ([1]; 6 days) [%] | Percentage of reduction of cucumber powdery mildew ([1]; 8 days) [%] | Percentage of reduction of cucumber powdery mildew ([1]; 12 days) [%] | Phytotoxicity on cucumber plants ([1]; days following the application)
S1SSSSSSS1 [Sulphur] | 164 ± 3 | 16.3 ± 1.1 | 100 ± 5.0 | 0.28 ± 0.08 % of infection | ~100 |  |  |  |  | 
CCCCCCCCCCCCOS(=O)(=O)[O-].[Na+] [Sodium dodecyl sulfate] |  |  |  |  |  | 100 | 100 | 100 | 95 | phytoxicity developed
